According to PubChem BioAssay (NCI):
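How tested: cells in 96-well plates exposed to compound for 48 hours at five concentrations. Definition used: TGI = concentration required for complete inhibition of growth.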

Legend:
Assay in all cases: NCI anticancer screen, dose series, 48 h
SR leukemia = system: SR leukemia
SF-268 CNS = system: SF-268 CNS
UO-31 renal = system: UO-31 renal
TK-10 renal = system: TK-10 renal
HOP-92 NSCLC = system: HOP-92 NSCLC
786-0 renal = system: 786-0 renal
MDA-MB-435 = system: MDA-MB-435
M14 melanoma = system: M14 melanoma
RPMI-8226 leukemia = system: RPMI-8226 leukemia
NCI-H522 lung = system: NCI-H522 lung
SF-539 CNS = system: SF-539 CNS
SF-295 CNS = system: SF-295 CNS
NCI-H460 lung = system: NCI-H460 lung
IGROV1 ovarian = system: IGROV1 ovarian
KM12 colon = system: KM12 colon
HCT-116 colon = system: HCT-116 colon
OVCAR-4 ovarian = system: OVCAR-4 ovarian
CAKI-1 renal = system: CAKI-1 renal
LOX IMVI melanoma = system: LOX IMVI melanoma
CCRF-CEM leukemia = system: CCRF-CEM leukemia
A498 renal = system: A498 renal
HS 578T breast = system: HS 578T breast
OVCAR-5 ovarian = system: OVCAR-5 ovarian
PC-3 prostate = system: PC-3 prostate
SNB-19 CNS = system: SNB-19 CNS
SK-OV-3 ovarian = system: SK-OV-3 ovarian
U251 CNS = system: U251 CNS
HT29 colon = system: HT29 colon
HL-60(TB) leukemia = system: HL-60(TB) leukemia
DU-145 prostate = system: DU-145 prostate
BT-549 breast = system: BT-549 breast
MCF7 breast = system: MCF7 breast
SW-620 colon = system: SW-620 colon
OVCAR-3 ovarian = system: OVCAR-3 ovarian
HCT-15 colon = system: HCT-15 colon
SK-MEL-28 melanoma = system: SK-MEL-28 melanoma
MALME-3M melanoma = system: MALME-3M melanoma
MDA-N = system: MDA-N
NCI-H23 lung = system: NCI-H23 lung
HOP-62 NSCLC = system: HOP-62 NSCLC
UACC-257 melanoma = system: UACC-257 melanoma
COLO 205 colon = system: COLO 205 colon
MDA-MB-231 breast = system: MDA-MB-231 breast
RXF 393 renal = system: RXF 393 renal
SK-MEL-5 melanoma = system: SK-MEL-5 melanoma
NCI-H226 lung = system: NCI-H226 lung
OVCAR-8 ovarian = system: OVCAR-8 ovarian
K-562 leukemia = system: K-562 leukemia
HCC-2998 colon = system: HCC-2998 colon
EKVX NSCLC = system: EKVX NSCLC
MOLT-4 leukemia = system: MOLT-4 leukemia
SNB-75 CNS = system: SNB-75 CNS
SK-MEL-2 melanoma = system: SK-MEL-2 melanoma
UACC-62 melanoma = system: UACC-62 melanoma
NCI/ADR-RES ovarian = system: NCI/ADR-RES ovarian
A549 NSCLC = system: A549 NSCLC
SN12C renal = system: SN12C renal
ACHN renal = system: ACHN renal
T-47D breast = system: T-47D breast

Measured: TGI

Nc1nc(Cl)cc(NCCC2(CO)CCC2)n1
> 100 µM: all assays above
